Key:
[1] = system: RKO (RKOp27) human colon adenocarcinoma cells; assay: Alamar Blue cell viability assay, anti-proliferative/cytotoxic activity on proliferating RKO subclones; assay type: cell-based; details: RKOp27, 72 h, RKO p27 uninduced (proliferating) cells, value = class bound given in Table A, read-out: −logIC50 RKO p27 uninduced (proliferating) (converted)
Summary of the method: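 Alamar Blue fluorescence (ex 544, em 590 nm) after 72 h compound exposure at 37 °C, 5% CO2, normalised to untreated controls set at 100%. Cells were seeded at 5000 per well and dosed 24 h later with serial semi-logarithmic dilutions in 10% FCS DMEM, four replicates each. −log IC50 [mol/l] was derived from concentration-effect curves.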

[2] = system: subclones of RKO colon adenocarcinoma cells (RKOp27 or RKOp21) arrested by Ponasterone A; assay: Alamar Blue cell viability assay, cell cycle specific mode of action: cells arrested by ectopic p27Kip1 induced by Ponasterone A versus proliferating cells; assay type: cell-based; details: Homo sapiens, RKO p27 induced (arrested) cells, 10 μM Ponasterone A, 72 hours, value = class bound given in Table A, read-out: −logIC50 RKO p27 induced (arrested) (converted)
Summary of the method: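 Viability of proliferating versus Ponasterone A (10 μM)-arrested RKOp27/RKOp21 cells after 72 h compound exposure at 37° C, in quadruplicate. Read-out is Alamar Blue fluorescence (544/590 nm) normalised to untreated cells = 100%; values as −log IC50.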

Row | Compound | IC50 [1] | IC50 [2]
1 | CCOc1ccccc1CCC(=O)Nc1sc2c(c1C#N)CCC(COC(=O)NCc1ccncc1)C2 (stereo not shown) [Example 181, Pyridin-4-ylmethyl-carbamic acid 3-cyano-2-[3-(2-ethoxy-phenyl)-propanoylamino]-4,5,6,7-tetrahydro-benzo[b]thiophen-6-ylmethyl ester] | ≤ 0.501 µM | ≥ 100 µM
2 | CCOc1ccccc1CCC(=O)Nc1sc2c(c1C#N)CCC(COC(=O)NCc1ncc[nH]1)C2 (stereo not shown) [Example 179, (1H-Imidazol-2-ylmethyl)-carbamic acid 3-cyano-2-[3-(2-ethoxy-phenyl)-propanoylamino]-4,5,6,7-tetrahydro-benzo[b]thiophen-6-ylmethyl ester] | ≤ 0.501 µM | ≥ 10 µM
3 | CCNC(=O)OC1CCc2c(sc(NC(=O)CCc3cccc(OC)c3)c2C#N)C1 (stereo not shown) [Example 248, Ethyl-carbamic acid 3-cyano-2-[3-(3-methoxy-phenyl)-propanoylamino]-4,5,6,7-tetrahydro-benzo[b]thiophen-6-yl ester] | ≤ 0.501 µM | ≥ 100 µM
4 | CC(CC(=O)Nc1sc2c(c1C#N)CCC(OC(=O)NCc1cccn1C)C2)c1ccccc1 (stereo not shown) [Example 300, (1-Methyl-1H-pyrrol-2-ylmethyl)-carbamic acid 3-cyano-2-(3-phenyl-butanoylamino)-4,5,6,7-tetrahydro-benzo[b] thiophen-6-yl ester] | ≤ 0.501 µM | ≥ 50.1 µM
5 | N#Cc1c(NC(=O)/C=C/c2cccnc2)sc2c1CCC(COC(=O)N1CCCC1)C2 (stereo not shown) [Example 68, Pyrrolidine-1-carboxylic acid 3-cyano-2-((E)-3-pyridin-3-yl-allanoylamino)-4,5,6,7-tetrahydro-benzo[b]thiophen-6-ylmethyl ester] | ≤ 0.501 µM | ≥ 100 µM
6 | CCOc1ccccc1CCC(=O)Nc1sc2c(c1C#N)CCC(COC(=O)NCc1cncn1C)C2 (stereo not shown) [Example 177, (3-Methyl-3H-imidazol-4-ylmethyl)-carbamic acid 3-cyano-2-[3-(2-ethoxy-phenyl)-propanoylamino]-4,5,6,7-tetrahydro-benzo[b]thiophen-6-ylmethyl ester] | ≤ 0.501 µM | ≥ 50.1 µM
7 | N#Cc1c(NC(=O)/C=C/c2cccnc2)sc2c1CCC(OC(=O)NCCn1ccnc1)C2 (stereo not shown) [Example 37, (2-Imidazol-1-yl-ethyl)-carbamic acid 3-cyano-2-((E)-3-pyridin-3-yl-allanoylamino)-4,5,6,7-tetrahydro-benzo[b]thiophen-6-yl ester] | 0.501 to 2 µM | ≥ 100 µM
8 | CC(CO)NC(=O)OCC1CCc2c(sc(NC(=O)/C=C/c3cccnc3)c2C#N)C1 (stereo not shown) [Example 102, (2-Hydroxy-1-methyl-ethyl)-carbamic acid 3-cyano-2-((E)-3-pyridin-3-yl-allanoylamino)-4,5,6,7-tetrahydro-benzo[b]thiophen-6-ylmethyl ester] | 0.501 to 2 µM | ≥ 100 µM
9 | CC(CC(=O)Nc1sc2c(c1C#N)CCC(OC(=O)N1CCCC1)C2)c1ccccc1 (stereo not shown) [Example 360, Pyrrolidine-1-carboxylic acid 3-cyano-2-(3-phenyl-butanoylamino)-4,5,6,7-tetrahydro-benzo[b] thiophen-6-yl ester] | ≤ 0.501 µM | ≥ 100 µM
10 | COc1cccc(C(C)CC(=O)Nc2sc3c(c2C#N)CCC(OC(=O)NCc2conc2C)C3)c1 (stereo not shown) [Example 361, (3-Methyl-isoxazol-4-ylmethyl)-carbamic acid 3-cyano-2-[3-(3-methoxy-phenyl)-butanoyl-amino]-4,5,6,7-tetrahydro-benzo[b] thiophen-6-yl ester] | ≤ 0.501 µM | ≥ 100 µM
11 | CCOc1ccccc1/C=C/C(=O)Nc1sc2c(c1C#N)CCC(OC(=O)NCCn1ccnc1)C2 (stereo not shown) [Example 31, (2-Imidazol-1-yl-ethyl)-carbamic acid-3-cyano-2-[(E)-3-(2-ethoxy-phenyl)-allanoylamino]-4,5,6,7-tetrahydro-benzo[b]thiophen-6-yl ester] | ≤ 0.501 µM | ≥ 10 µM

Reference: US20110044938A1 (NYCOMED GMBH, priority 2006, published 2011)
